Columns and labels:
[1] = tested on: B lymphocytes; assay: Lymphocyte blastogenesis assay, B lymphocytes (PWM); format: cell-based, human
Experimental: T and B lymphocytes from normal human donors were incubated for 30 minutes at various dose levels of the compounds indicated. The lymphocytes were added in triplicate wells in gentamicin and phytohemagglutinin (PHA) (a T cell mitogen), pokeweed mitogen (PWM) (a B cell mitogen) and allogeneic mononuclear cells (mixed leukocyte cultures; MLC) or media containing the above additives. The lymphocyte blastogenesis assay is described in detail below.
The data are represented as the mean of the three replicates. The results are presented in Charts la(e) (i) and la(e) (ii) (Figs. 1 and 2). […] A reduction of both T lymphocytes' abilities to proliferate was obtained when 100 u.M or greater concentrations of IPA was added to the cell cultures. Proliferative activity of T lymphocytes by 25% at the 30 u.M concentration of IPA in the experiment.
• 1. Mononuclear cells are separated from whole blood by differential centrifugation using a synthetic separation medium, or are thawed from a cryopreserved preparation. The cells are washed and resuspended in media (RPMI - 1640, L-Glutamine 2mM, Herpes Buffer 25mM, Gentamicin 50 ug/ml, Human AB Serum-heat inactivated (56°, 30°) 20%). • 2. A viable cell count is determined. • 3. Cell concentration is adjusted to 2 x 10^6 /ml in media. • 4. The cell suspension is added to wells of a 96-well flat bottom plate in 0.1 ml aliquots (2 x 10^5 cells). • 5. The selected mitogens and/or antigens (in media without serum) are added to the cells in the wells also in 0.1 ml aliquots. • 6. The cultures are incubated for 3-7 days (depending upon the mitogen or antigen) at 37° C in a humidified 5% C02 atmosphere. • 7. Six to eight hours before termination of cultures 0.05 ml (1 µCi) of ^3HTdR sp. act 6.7 Ci/mM (20 µCi/ml stock) is added to each well. • 8. At termination of cultures the cells are harvested onto strips of scintillation-grade fibreglass paper using a multiple sample harvester. • 9. Perforated disks from the fibreglass paper of the harvested cultures are placed each into scintillation vials to which is then added 5 ml of toluene based scintillation cocktail. • 10. The vials are counted in a liquid scintillation counter for one minute where the amount of incorporated ^3HTdR is determined.
net CPM = xCPM of mitogen/antigen cultures - xCPM of media cultures.

[2] = tested on: Monocytes; assay: Experiment la(f): monocyte spontaneous migration (agarose droplet); format: cell-based, human; conditions: for Total Area (mm^2) Migration: Table Ia(f)(ii)
Experimental: Monocytes from each human donor were incubated for 30 minutes with three different dose levels of compound la in triplicate. These cells were added to agarose and droplets of agarose containing cells were added to small chambers. A chemotaxis agent was added to induce enhanced migration of the mononuclear cells. The detailed assay procedures are described below.
Cell migration patterns of triplicates within 30% of each other were generally accepted.
• 1. Add 6 ml Phosphate Buffered Saline (PBS) 2X to 7 ml of Percoll. • 2. Add mixture to 15 ml polycarbonate centrifuge tubes (Sorvall ^*03243, 18 x 100 mm, pt. ^*00770 50/box, w/caps). ' • 3. Centrifuge tubes at 21,000 x g for 45 minutes (Sorvall, RC2-B centrifuge w/SS-34 rotor, 34 fixed angle, -15,000 rpm w/Drake off @ 4 C). Percoll gradient is good for two weeks. • 4. Mononuclear cells are separated from whole blood by differential centrifugation using a synthetic separation medium. • 5. Cells are washed 2X with Basal Salt Solution (BSS). • 6. Resuspend cells in BSS + 10% BCS, then add mixture to 50 ml centrifuge tubes containing 30-40 ml of Bovine Calf Serum (BCS) and centrifuge at 400 x g for 10 minutes. • 7. Resuspend cells in BSS without BCS. • 8. Determine viable cell number. • 9. Adjust concentration of cells to […]. • 10. Carefully layer 2 ml of cells on top of Percoll gradient. Centrifuge tubes at 100 x g for 20 minutes at 4°C with brake off. • 11. Monocyte layer is harvested with a pasteur pipet and aliquoted into a 50 ml centrifuge tube. Dead cells are in the top band. Monocytes are about 5 ml above middle gradient. Lymphocytes are about 5 ml below middle gradient. […] Wash cells 3X in BSS without BCS. • 13. Resuspend cells in desired media. • 14. Perform esterase stain on monocyte cell suspension to determine ratio of monocytes. Ratio ranges from 50 - 80%.
• 1. A 0.4% solution of Agarose (Seakem HE) and distilled H20 is prepared, aliquoted into 1 dram vials, autoclaved and stored at 4° C until used. • 2. A suspension of […] cells in Media 199 2X containing glutamine 2mM, gentamicin 50 µg/ml and bovine calf serum-heat inactivated (56° C, […]) 20%, is combined with an equal amount of 0.4% Agarose. • 3. A 5 µl droplet of cell/agarose mixture is added to the centre of a Sterilin plate (Surrey, England). • 4. A 2 µl droplet of agarose/media mixture is added 3-5mm to one side of the cell/agarose droplet and a 2 µl droplet of agarose/chemo-attractant (N-formyl-L-methionyl-L-Leucyl-L-Phenylalanine 10^-4 M(F-Met-Leu-Phe)) is added 3-5mm to the other side of the cell/agarose droplet. • 5. The droplets are allowed to solidify, after which 0.5 ml of RPMI-1640 containing glutamine 2mM, gentamicin 50, µg/ml and bovine calf serum 10% is added to the well. A cover slip is then placed over the well. • 6. The plate is incubated at 37° C, 5% C02/air humified for approximately 18 hours. • 7. The plate is removed from the incubator and the distance the cells have moved towards the media control and the chemoattractant droplets is traced and measured.

Structure (SMILES): CC(C)=CCNc1ncnc2c1ncn2[C@@H]1O[C@H](CO)[C@@H](O)[C@H]1O [IPA, N^6-(Δ^2-isopentenyl) adenosine]
- B lymphocyte responsiveness ([1]; 10 µM, third experiment): Increased
- B lymphocyte function ([1]; 1000 µM down to 10 µM, third experiment (Figs. 7 and 8)): reductions
- B lymphocyte proliferation ([1]; 0.1 - 10 µM, first experiment): No effect or an increase
- reduction in B lymphocyte function ([1]; 30 -35 u.M, third experiment): ~25%
- reduction of B lymphocyte proliferation ([1]; between the 30 -10 u.M concentration levels, second experiment, approximate): 30 -50%
- reduction in spontaneous migration ([2]; 30 µM): 15%
- spontaneous migration ([2]; 0.1 - 0.3 µM): Enhanced spontaneous migration
- reduction in the ability of the monocytes to spontaneously migrate ([2]; 100 - 1000 µM): 22-37%
- Total Area (mm^2) Migration ([2]; IPA 5 µM, media 9085): 7952 mm^2
- Total Area (mm^2) Migration ([2]; IPA 10 µM, media 9085): 6846 mm^2
- Total Area (mm^2) Migration ([2]; IPA 15 µM, media 9085): 6300 mm^2
- Total Area (mm^2) Migration ([2]; IPA 20 µM, media 8732): 6804 mm^2
- Total Area (mm^2) Migration ([2]; IPA 25 µM, media 8732): 6435 mm^2
- Total Area (mm^2) Migration ([2]; IPA 30 µM, media 8732): 5795 mm^2

— patent EP0462621A2, “Use of particular compounds for manufacture of pharmaceutical formulations for treatment against various parasites, mycoplasmas, other indications and other infections” (Prendergast, Patrick Thomas, priority 1990, dated 1991)
